These results are taken from patent US9403874B2, “Peptides and use thereof” (IL YANG PHARM. CO.,LTD., priority 2012, dated 2016).

One experiment has as its system IL-8. The experiment can be described thus: Reduction of IL-8 secretion in activated B cells (ELISA). The class given is cell-based. The conditions noted are these: 100 ng/me of peptide; EBV-infected B cells stimulated with anti-CD150; ELISA of culture supernatant. The procedure:
(§1) In order to determine the activity of the novel peptides synthesized in Example 1 for reducing the secretion of inflammatory cytokines, the activated pathogenic B cells were treated with each of the 18 types of synthesized novel peptides and the reduction in secretion of inflammatory cytokines from the B cells was monitored.
(§2) Specifically, in order to determine whether the novel peptides could weaken the pathogenic B cells which are involved in the development of disease symptoms, the in vitro B cells model which is similar to the joint infiltrative B cells of rheumatoid arthritis was used. The activated pathogenic B cell was generated by stimulating Ebstein Barr virus (EBV)-infected B cells with anti-CD150 antibodies, and the cells were treated with […] of each of the 18 types of novel peptide.
(§3) In order to confirm the effect of 18 types of novel peptides in reducing inflammatory cytokines, the secretion amount of various cytokines (IL-1A, IL-1B, IL-2, IL-4, IL-5, IL-6, IL-8, IL-10, IL-12A, IL-13, IL-17A, GM-CSF, IL-34) secreted from the activated B cells was measured. The supernatants of B cell culture were analyzed enzyme-linked immunosorbent assay (ELISA), and the difference in absorbance (450 nm-570 nm) of the color developing reagent was measured as test results. Based on the measured difference in absorbance (450 nm-570 nm) of the color developing reagent, the absorbance of cytokines secreted when treated with the 18 types of novel […] was calculated in percentage, while setting the absorbance corresponding to the cytokines secreted from the activated B cells stimulated by anti-CD150 as 100%.
Background: In an ELISA, binding on a coated surface is turned into a signal by an enzyme label.

Another experiment deals with IL-1A. The experiment can be described thus: Reduction of IL-1A secretion in activated B cells (ELISA). The class given is cell-based. The following applies: 100 ng/me of peptide; EBV-infected B cells stimulated with anti-CD150; ELISA of culture supernatant. How it is done: as §1, §2, §3
The subject of another experiment is IL-34. As to the kind of experiment: Reduction of IL-34 secretion in activated B cells (ELISA). The following applies: 100 ng/me of peptide; EBV-infected B cells stimulated with anti-CD150; ELISA of culture supernatant. The class given is cell-based. The procedure: as §1, §2, §3
In experiment [1] the test system is antibodies specific to bovine type II collagen. As to the kind of experiment: Serological analysis in collagen-induced arthritis mice (ELISA). The class given is in vivo, mouse. The following applies: serum of CIA mice. How it is done:
In order to determine the therapeutic effect of the novel peptide SIS-1 for arthritis, enzyme-linked immunosorbent assay (ELISA) was performed to measure the antibodies specific to bovine type II collagen with the serological test. As mentioned in the literature, IgG antibody, known as the rheumatoid factor (RF), or subtype of IgG (IgG1 and IgG2a) and IgM autoantibody are known to form immune complexes, cause inflammation, and develop the lesions of rheumatoid arthritis (Journal of Ethnopharmacology 112 (2007) 408).
After diluting the serum of each test group in a ratio of 1:25000 (IgG) or 1:10000 (IgG1, IgG2a, IgM), the titer of serum autoantibody specific to type II collagen was measured.

The test system of the next experiment is IL-2. The experiment can be described thus: Reduction of IL-2 secretion in activated B cells (ELISA). The conditions noted are these: 100 ng/me of peptide; EBV-infected B cells stimulated with anti-CD150; ELISA of culture supernatant. The class given is cell-based. The procedure: as §1, §2, §3
Another experiment deals with IL-5. As to the kind of experiment: Reduction of IL-5 secretion in activated B cells (ELISA). The class given is cell-based. The conditions noted are these: 100 ng/me of peptide; EBV-infected B cells stimulated with anti-CD150; ELISA of culture supernatant. The procedure: as §1, §2, §3
For experiment [2], the system named is TPA-induced ear edema mouse model. The experiment can be described thus: TPA-induced ear edema mouse model. Format: in vivo. The conditions noted are these: 6 hours after TPA application, intraperitoneal, twice. An excerpt: The present inventors confirmed that the peptides of the present invention are effective in alleviating inflammation invivo, along with reduction of the secretion of inflammatory cytokines as confirmed in Example 2. To be specific, in order to identify the anti-inflammatory effect of the peptide SIS-1, which is a representative peptide of 18 types of novel peptides prepared in Example 1, the present inventors used the method for evaluating the mouse ear edema wherein 12-O-tetradecanoylphorbol-13-acetate (TPA) induces acute inflammation as described in the literature (Eur J Pharmacol. 2011: 15; 672(1-3):175-179).
The TPA-induced ear edema mouse model is an animal model where erythema and edema caused by acute inflammation can be observed and it was prepared by the following method. The 24 mice of 5-week-old ICR mouse ([…], mal, central laboratory animals, Korea) were divided into 6 mice per group, and their hairs of both ears were removed before applying the sample. […]
The anti-inflammatory effect of the peptide SIS-1 was determined by observing the degree of edema inhibition as compared to the control group injected with vehicle. After 6 hours of TPA application, pictures of both ears were taken to determine the degree of ear edema, and the degree of inflammation alleviated was determined by measuring the thickness and weight per certain area of ear.

The test system of another experiment is IL-10. As to the kind of experiment: Reduction of IL-10 secretion in activated B cells (ELISA). The class given is cell-based. The following applies: 100 ng/me of peptide; EBV-infected B cells stimulated with anti-CD150; ELISA of culture supernatant. The procedure:
as §1, §2, §3

The test system of the next experiment is GM-CSF. As to the kind of experiment: Reduction of GM-CSF secretion in activated B cells (ELISA). Format: cell-based. The conditions noted are these: 100 ng/me of peptide; EBV-infected B cells stimulated with anti-CD150; ELISA of culture supernatant. How it is done:
as §1, §2, §3

A further experiment deals with IL-13. The experiment can be described thus: Reduction of IL-13 secretion in activated B cells (ELISA). The following applies: 100 ng/me of peptide; EBV-infected B cells stimulated with anti-CD150; ELISA of culture supernatant. Format: cell-based. How it is done:
as §1, §2, §3

The subject of another experiment is IL-6. The experiment can be described thus: Reduction of IL-6 secretion in activated B cells (ELISA). Format: cell-based. The following applies: 100 ng/me of peptide; EBV-infected B cells stimulated with anti-CD150; ELISA of culture supernatant. The procedure: as §1, §2, §3
The test system of the next experiment is IL-12A. The experiment can be described thus: Reduction of IL-12A secretion in activated B cells (ELISA). The class given is cell-based. The conditions noted are these: 100 ng/me of peptide; EBV-infected B cells stimulated with anti-CD150; ELISA of culture supernatant. How it is done:
as §1, §2, §3

The subject of another experiment is IL-4. The experiment can be described thus: Reduction of IL-4 secretion in activated B cells (ELISA). The class given is cell-based. The following applies: 100 ng/me of peptide; EBV-infected B cells stimulated with anti-CD150; ELISA of culture supernatant. How it is done: as §1, §2, §3
Experiment [3] deals with collagen-induced arthritis mouse model. The experiment can be described thus: Collagen-induced arthritis mouse model. Format: in vivo. How it is done: In order to investigate the therapeutic effect of the peptide SIS-1, which is a representative peptide of the 18 types of novel peptides prepared in Example 1 against a representative autoimmune disease, arthritis, the experiment was performed using the collagen-induced arthritis mouse model of the literature (Nature, 283, pp 666-668, 1980; Arthritis Rheum, 46, pp 793-801, 2002).
The collagen-induced arthritis (CIA) is the model with arthritis of autoimmune disease type having similar characteristics as human rheumatoid arthritis and it was prepared by the following method.
The 100 μg of bovine type II collagen (Chondrex four, United States) was emulsified by mixing it with Freund's complete adjuvant (Chondrex, USA), and 7-week-old DBA/1 mouse ([…], male, central laboratory animals, Korea) was immunized by injecting the emulsified collagen solution intradermally at the tail region. On the 14th day of the first immunization, 50 μg of bovine type II collagen (Chondrex four, United States) was emulsified by mixing it with Freund's complete adjuvant (Chondrex, USA), and the second immune (boosting) response was induced by injecting the same intradermally at the tail region.
The novel peptide SIS-1 and a control drug, dexamethasone (DEX), were intraperitoneally administered three times a week from the next day of inducing the second immune response, and the control group (CIA) was treated with PBS.
In order to monitor the development of arthritis, the thickness of foot was measured using loop handle thickness gauge (Mitutoyo) while observing the weight change and the level of pathogenesis. In addition, the severity of the joint inflammation was assessed three times a week by two observers without knowing the contents of the experiment. Assessment of arthritis was performed by adding the scores for four legs per one mouse according to the following criteria, based on the arthritis progression index by Rossoliniec, et al. and then by taking the average of the values measured by two observers. The score and criteria for assessing arthritis are as follows:
0 point: no edema or swelling
1 point: mild edema and redness confined to foot or ankle joint
2 points: mild edema and redness in ankle joint through metatarsal
3 points: moderate edema and redness in ankle joint through metatarsal
4 points: edema and redness through the whole leg, and appearance of acampsia
The maximum arthritis index is 4 points per leg, and the maximum disease index per mouse is 16.
In order to determine the damage in the cartilage of joints, the histological examination was performed after completion of the test. On the 9th week of the animal model test, after the test animal was killed, the hind leg of the mouse hind was fixed with 10% formalin and coated with paraffin after removing compounds of calcium from the bones. Joint section was prepared and stained with hematoxylin and eosin.

For another experiment, the system named is IL-17A. The experiment can be described thus: Reduction of IL-17A secretion in activated B cells (ELISA). The following applies: 100 ng/me of peptide; EBV-infected B cells stimulated with anti-CD150; ELISA of culture supernatant. Format: cell-based. How it is done:
as §1, §2, §3

For the next experiment, the system named is IL-1B. The experiment can be described thus: Reduction of IL-1B secretion in activated B cells (ELISA). Format: cell-based. The conditions noted are these: 100 ng/me of peptide; EBV-infected B cells stimulated with anti-CD150; ELISA of culture supernatant. The procedure:
as §1, §2, §3

Take MSLPSPRDGRTDGRTDCTR (SIS-1 peptide): in the experiment on IL-8, the “Inhibition rate of each cytokine compared to CD150-stimulated EBV-t B cells (%) IL-8” value is 53.8%. For the same sequence, in the experiment with IL-1A, the “Inhibition rate of each cytokine compared to CD150-stimulated EBV-t B cells (%) IL-1A” value came to 22.7%. In addition, the “Inhibition rate of each cytokine compared to CD150-stimulated EBV-t B cells (%) IL-34” value in the experiment with IL-34 is 43.4%. Moreover, the “reduction of autoantibodies compared with control drug DEX” value in [1] was “as effective as or superior than”. Besides, the “Inhibition rate of each cytokine compared to CD150-stimulated EBV-t B cells (%) IL-2” value with IL-2 is 19.7%. In the experiment on IL-5, the “Inhibition rate of each cytokine compared to CD150-stimulated EBV-t B cells (%) IL-5” value worked out at 30.3%. In [2], the “erythema increased by TPA application” value is given as “reduced”; the “inflammatory response (thickness and weight of ear increased by TPA edema)” value is listed as “inhibited significantly”. Besides, in the experiment on IL-10, the “Inhibition rate of each cytokine compared to CD150-stimulated EBV-t B cells (%) IL-10” value came to 47.6%. Also, the “Inhibition rate of each cytokine compared to CD150-stimulated EBV-t B cells (%) GM-CSF” value with GM-CSF worked out at 60.5%. Also, in the experiment on IL-13, the “Inhibition rate of each cytokine compared to CD150-stimulated EBV-t B cells (%) IL-13” value is given as 37.6%. Moreover, in the experiment with IL-6, the “Inhibition rate of each cytokine compared to CD150-stimulated EBV-t B cells (%) IL-6” value is on record as 42.9%. The “Inhibition rate of each cytokine compared to CD150-stimulated EBV-t B cells (%) IL-12A” value in the experiment with IL-12A is on record as 43.5%. In addition, in the experiment with IL-4, the “Inhibition rate of each cytokine compared to CD150-stimulated EBV-t B cells (%) IL-4” value was 59.9%. The “onset of disease symptom” value in [3] (after second immunization, versus CIA group) is given as “delayed”. Also, the mouse weight result in experiment [3] (after second immunization, intraperitoneal three times a week) is “maintained similar to that of Normal group”. The same sequence returned an incidence of arthritis in experiment [3] (by the end of the test, intraperitoneal three times a week) of 87.5%. Also, in experiment [3] (compared to the CIA group), the arthritis progression index result was “reduced” and the “swelling of ankle joints” value was “reduced”. In addition, the “destruction of joints and cartilage (histology, hematoxylin and eosin)” value in [3] (hind leg joint sections, 9th week) is given as “maintained at similar level as the normal mice”. Also, the “Inhibition rate of each cytokine compared to CD150-stimulated EBV-t B cells (%) IL-17A” value with IL-17A came out at 63.6%. In addition, the “Inhibition rate of each cytokine compared to CD150-stimulated EBV-t B cells (%) IL-1B” value with IL-1B was determined as 25.4%.
